Paper PMC11637378, “Optogenetic screening of MCT1 activity implicates a cluster of non-steroidal anti-inflammatory drugs (NSAIDs) as inhibitors of lactate transport” (PLOS ONE, 2024)
Several values for one entry are separate records, joined by “and”; a condition that tells them apart may be missing. Equal values may be shown once. Where a name gives a salt, the structure may show the parent alone.

test system: parent strain (SAWy518); assay: not given; settings: not given

Compound	Offscreen_18hr	Offscreen_24hr	Offscreen_42hr	18 hours	24 hours	48 hours	Offtarget	Offtarget_sub	OffScreen_percentage [percentage]	Read_percentage [percentage]
Cc1c(N)nc([C@H](CC(N)=O)NC[C@@H](N)C(N)=O)nc1C(=O)N[C@H](C(=O)N[C@@H](C)[C@H](O)[C@@H](C)C(=O)N[C@@H](C(=O)NCCc1nc(-c2nc(C(=O)NCCC[S+](C)C)cs2)cs1)[C@@H](C)O)C(O[C@H]1O[C@H](CO)[C@H](O)[C@@H](O)[C@H]1O[C@H]1O[C@H](CO)[C@@H](O)[C@H](OC(N)=O)[C@@H]1O)c1c[nH]cn1.O=S(=O)([O-])O (stereo partly shown) [Bleomycin sulfate]	0.261	0.4579	0.8554	–	–	–	–	–	–	–
COc1c(C)c2c(c(O)c1C/C=C(\C)CCC(=O)O)C(=O)OC2 [Mycophenolic (Mycophenolate)]	0.6524	0.8532	0.951	–	–	–	–	–	–	–
CC(=O)[C@]1(O)Cc2c(O)c3c(c(O)c2[C@@H](O[C@H]2C[C@H](N)[C@H](O)[C@H](C)O2)C1)C(=O)c1ccccc1C3=O [Idarubicin]	0.154	0.1842	0.3602	–	–	–	–	–	–	–
O=C(O)[C@]1(Cc2cccc(Nc3nccs3)n2)CC[C@@H](Oc2cccc(Cl)c2F)CC1 [MK-5108 (VX-689)]	0.6785	0.8599	0.9444	–	–	–	–	–	–	–
O=c1[nH]c(=O)c2ccccc2o1 [pu-sc-0002 H19]	–	–	–	0.7281	0.8523	0.8964	–	–	–	–
Cl.O=S(=O)(c1cccc2c(I)cccc12)N1CCCNCC1 [ML-7, reference compound]	–	–	–	–	–	–	NO	0.3788	–	–
CCC(C)n1ncn(-c2ccc(N3CCN(c4ccc(OC[C@H]5CO[C@](Cn6cncn6)(c6ccc(Cl)cc6Cl)O5)cc4)CC3)cc2)c1=O (stereo partly shown) [Itraconazole (Sporanox)]	0.7339	0.8546	0.8998	–	–	–	–	–	–	–
CCC(Cc1c(I)cc(I)c(N)c1I)C(=O)O (stereo not shown) [IOPANIC ACID]	0.6491	0.7855	0.8261	–	–	–	–	–	–	–
O=C(/C=C/c1ccc(O)cc1)c1ccccc1 [4-hydroxychalcone, reference compound]	0.8368	0.9201	0.9804	–	–	–	–	–	103.693	103.693
O=[N+]([O-])/C=C/c1ccc2c(c1)OCO2 [MNS]	0.2427	0.4675	0.9062	–	–	–	–	–	–	–
O=C(Nc1cc(C(F)(F)F)cc(C(F)(F)F)c1)c1cc(Cl)ccc1O [IMD 0354]	0.1675	0.2933	0.8452	–	–	–	–	–	–	–
CC(C)Cn1c(=O)n(C)c(=O)c2[nH]cnc21 [3-Isobutyl-1-methylxanthine, reference compound]	–	–	–	–	–	–	NO	0.4308	–	–
O=C1NC(=O)/C(=C\c2cccc(C(F)(F)F)c2)S1 [TCS PIM-1 4a]	0.5379	0.7077	0.7912	–	–	–	–	–	–	–
O=C1c2ccccc2C(=O)c2c(O)c(O)cc(O)c21 [PURPURIN]	0.5082	0.6741	0.7778	–	–	–	–	–	–	–
O=[N+]([O-])c1ccc(O)c2ncccc12 [NITROXOLINE]	0.0416	0.0414	0.0729	–	–	–	–	–	–	–
CCCCCCCCCCCCC[N+](C)(C)Cc1ccccc1.[Cl-] [BENZALKONIUM CHLORIDE]	0.0504	0.056	0.5903	–	–	–	–	–	–	–
CO[C@H]1C[C@@H]2CC[C@@H](C)[C@@](O)(O2)C(=O)C(=O)N2CCCC[C@H]2C(=O)O[C@H]([C@H](C)C[C@@H]2CC[C@@H](O)[C@H](OC)C2)CC(=O)[C@H](C)/C=C(\C)[C@@H](O)[C@@H](OC)C(=O)[C@H](C)C[C@H](C)/C=C/C=C/C=C/1C [Rapamycin]	0.0498	0.0505	0.0758	–	–	–	–	–	–	–
CC[n+]1c(/C=C/C=C2/N(C)c3ccccc3C2(C)C)sc2ccccc21.[I-] [AC-93253 iodide]	0.3559	0.5533	0.821	–	–	–	–	–	–	–
CC[C@H](C(=O)[C@H](C)[C@@H](O)[C@@H](C)[C@@H]1O[C@@H]([C@@H](CC)C(=O)O)CC[C@H]1C)[C@H]1O[C@]2(C=C[C@@H](O)[C@]3(CC[C@@](C)([C@H]4CC[C@](O)(CC)[C@H](C)O4)O3)O2)[C@H](C)C[C@H]1C [Salinomycin (Procoxacin)]	0.8013	0.892	0.9461	–	–	–	–	–	–	–
O=C(O)Cc1cc(I)c(Oc2ccc(O)c(I)c2)c(I)c1 [TIRATRICOL]	0.6885	0.8174	0.855	–	–	–	–	–	–	–

Compound	Offscreen_18hr	Offscreen_24hr	Offscreen_42hr	18 hours	24 hours	48 hours	Offtarget	Offtarget_sub	OffScreen_percentage [percentage]	Read_percentage [percentage]
CCCCCCc1ccc(O)cc1O [HEXYLRESORCINOL]	0.6446	0.822	0.8874	–	–	–	–	–	–	–
N.N.N.N.N.N.N.N.N.N.N.N.N.N.[Cl-].[Cl-].[Cl-].[Cl-].[Cl-].[Cl-].[O-2].[O-2].[Ru+3].[Ru+3].[Ru+4] [Ruthenium red]	0.6166	0.8198	0.9382	–	–	–	–	–	–	–
CC(C)(C)c1ccc(S(=O)(=O)/C=C/C#N)cc1 [Bay 11-7085]	0.0422 and 0.0395	0.0424 and 0.04	–	–	–	–	–	–	–	–
C=CC(C1=CC(=O)C(OC)=CC1=O)c1ccc(O)cc1 (stereo not shown) [Dalbergione,4-methoxy-4-hydroxy-]	0.8261	0.9183	0.9703	–	–	–	–	–	102.367	102.367
OC(Cn1cncn1)(Cn1cncn1)c1ccc(F)cc1F [FLUCONAZOLE]	0.7681	0.8873	0.9468	–	–	–	–	–	–	–
COc1cc(C)c2c(=O)c(-c3ccccc3)coc2c1 [METHOXYVONE]	0.7685	0.8867	0.9442	–	–	–	–	–	–	–
O=C1C(Cl)=C(Cl)C(=O)C(Cl)=C1Cl [CHLORANIL]	0.1832	0.4077	0.9247	–	–	–	–	–	–	–
CC(C(=O)O)c1ccc2c(c1)[nH]c1ccc(Cl)cc12 (stereo not shown) [CARPROFEN]	0.7281	0.8523	0.8964	–	–	–	–	–	–	–
C[n+]1c2cc(N)ccc2cc2ccc(N)cc21.[Cl-] [ACRIFLAVINIUM HYDROCHLORIDE]	0.6168	0.8008	0.904	–	–	–	–	–	–	–
COc1c(C)c2c(c(O)c1C/C=C(\C)CCC(=O)O)C(=O)OC2 [MYCOPHENOLIC ACID]	0.6454	0.8395	0.9254	–	–	–	–	–	–	–
CCC(C)n1ncn(-c2ccc(N3CCN(c4ccc(OC[C@H]5CO[C@](Cn6cncn6)(c6ccc(Cl)cc6Cl)O5)cc4)CC3)cc2)c1=O.Cl.Cl (stereo partly shown) [ITRACONAZOLE HYDROCHLORIDE]	0.8063	0.8859	0.9404	–	–	–	–	–	–	–
Nc1[nH]c(=O)ncc1F [FLUCYTOSINE]	0.7196	0.8771	0.9452	–	–	–	–	–	–	–
NCC(=O)Nc1ccc(-n2nc(C(F)(F)F)cc2-c2ccc3c(ccc4ccccc43)c2)cc1 [OSU-03012 (AR-12)]	0.0821	0.1608	0.9195	–	–	–	–	–	–	–
[H]/N=C(\N/C(=N/[H])NCCCCCCNC(=N)NC(=N)Nc1ccc(Cl)cc1)Nc1ccc(Cl)cc1 [Chlorhexidine hydrochloride]	0.5517	0.7908	0.9568	–	–	–	–	–	–	–
N#Cc1c(Cl)c(Cl)c(Cl)c(C#N)c1Cl [CHLOROTHALONIL]	0.6512	0.8372	0.9297	–	–	–	–	–	–	–
N#CC[C@@H](C1CCCC1)n1cc(-c2ncnc3[nH]ccc23)cn1 [S-Ruxolitinib (INCB018424)]	0.6167	0.8199	0.9411	–	–	–	–	–	–	–
C=CC[C@@H]1/C=C(\C)C[C@H](C)C[C@H](OC)[C@H]2O[C@@](O)(C(=O)C(=O)N3CCCC[C@H]3C(=O)O[C@H](/C(C)=C/[C@@H]3CC[C@@H](O)[C@H](OC)C3)[C@H](C)[C@@H](O)CC1=O)[C@H](C)C[C@@H]2OC [TACROLIMUS]	0.727	0.8973	0.9661	–	–	–	–	–	–	–
CC(Cc1ccc(O)c(O)c1)C(C)Cc1ccc(O)c(O)c1 (stereo not shown) [Nordihydroguaiaretic acid, reference compound]	0.8169	0.9084	0.9699	–	–	–	–	–	101.227	101.227
COc1c(C)c2c(c(O)c1C/C=C(\C)CCC(=O)OCCN1CCOCC1)C(=O)OC2 [MYCOPHENOLATE MOFETIL]	0.5798	0.792	0.9179	–	–	–	–	–	–	–
Clc1ccccc1C(c1ccccc1)(c1ccccc1)n1ccnc1 [CLOTRIMAZOLE]	0.0789	0.1029	0.8087	–	–	–	–	–	–	–

same assay, conditions: parent strain growth reading, 18 hr

Compound	Offscreen_18hr
JAK3 Inhibitor VI	0.0531
CN(C)c1ccc2nc3ccc(=[N+](C)C)cc-3sc2c1 [Methylene Blue trihydrate]	0.8664

same assay, conditions: parent strain growth reading, 24 hr

Compound	Offscreen_24hr
JAK3 Inhibitor VI	0.0592
CN(C)c1ccc2nc3ccc(=[N+](C)C)cc-3sc2c1 [Methylene Blue trihydrate]	0.9565

same assay, conditions: parent strain growth reading, 42 hr

Compound	Offscreen_42hr
JAK3 Inhibitor VI	0.0892
CN(C)c1ccc2nc3ccc(=[N+](C)C)cc-3sc2c1 [Methylene Blue trihydrate]	1.0182

test system: parent strain (SAWy518); assay: microbe, parasite or virus in culture; design: species or system Saccharomyces cerevisiae SAWy518; Off-target growth counter-screen, OD600 as per cent of untreated wells, strain lacking MCT1; settings: 18.5 h; sheet Primary Screen - final;; off-target growth of parent strain, about 18 h
Method: Cells were grown for 18 hours prior to OD measurement. Fill represents manual compound grouping based on compound class or target. OD600 is reported in Tecan units. […] The drug library used in this study for the initial screen and rescreen was provided by the Small Molecule Screening Center at Princeton University, through a collaboration with Dr. Hahn Kim. […] Follow-up analysis (IC50 determinations) on library compounds was performed using compounds purchased from outside sources. […] Stocks were then diluted 100-fold into media containing 0.01 OD600 inoculation of yeast, to achieve the final concentrations listed. Where compounds were added manually (for example 10 μM AZD3965 addition) stock concentrations were diluted by a factor of 100-fold regardless of scale, resulting in a final concentration of 1% v/v DMSO which is well tolerated by yeast.

Compound	viability at 10 µM [%]
CCCc1c(-c2ccc(O)cc2)nn(-c2ccc(O)cc2)c1-c1ccc(O)cc1	99
